Experiments:
[1] = target: T1, GFP-CTH (mGFP-tagged C-terminal region of H-ras) in MDCK cells (Homo sapiens, UniProt P01112); assay: High throughput cell-based screen: plasma membrane localization of GFP-CTH; parameters: species or system canine; conditions: positive control
T1 construct: hypervariable region of H-ras (amino acids 166-189) cloned onto the carboxy terminus of monomeric GFP; expressed in transfected cells

[2] = target: T2, GFP-CTK (mGFP-tagged C-terminal region of K-ras) in MDCK cells (Homo sapiens, UniProt P01116); assay: High throughput cell-based screen: plasma membrane localization of GFP-CTK; parameters: species or system canine; conditions: positive control, 250 ng/mL UCN-01, MDCK
T2 construct: hypervariable region of K-ras (amino acids 166-188) cloned onto the carboxy terminus of GFP; expressed in transfected cells
Description: FIG. 1: Illustrates results of a high throughput cell-based screening of chemical libraries: Madin-Darby Canine Kidney epithelial cells (MDCK) expressing monomeric green fluorescent protein (mGFP)-tagged C-terminal region of K- or H-ras (GFP-CTK and GFP-CTH) were seeded in 96 well plates and treated with drug libraries for 48 h. Cells were then fixed with paraformaldehyde and imaged by BD Pathway Imager in confocal mode; shown are representative images of cells treated with vehicle, […], and 10 μM FTI-276; wherein experimentation was performed in accordance with principles described herein;
In accordance with some embodiments described herein, wild type MDCK cells or MDCK cells expressing monomeric green fluorescent protein (mGFP)-tagged C-terminal region of K-ras or H-ras (GFP-CTK and GFP-CTH respectively) were seeded in triplicate in 96 well plates (Matrical) at a density of 30,000 cells/well and incubated for 24 h at 37° C. Compounds were individually added to test cells at a concentration of 4 μg/mL (concentration of DMSO 1%) and incubated for a further 48 h.
Cells were then fixed with 4% paraformaldehyde and stored in PBS at 4° C. until imaged. Plates were imaged using a BD Pathway High-Throughput Bioimager. Images were acquired by a 3×3 montage with 20× objective lens using GFP-confocal mode. […]

[3] = test system: MAPK activation (pERK) in Hec1A cells; conditions: 48 h
Description: (§1) SDS-PAGE and Western blotting with the specified antibody were performed using 20 μg of each whole cell lysate/P100 fraction and volumes of S100 equal to that of the corresponding P100. Signal was detected by enhanced chemiluminescence (SuperSignal; Pierce, Thermo Fisher Scientific, Rockford, Ill.) and imaged by FluorChemQ (Alpha Inotech, San Leandro, Calif., USA). Quantification of intensities was performed using FluorChemQ software.

[4] = test system: CaCO-2 colon cancer cell line; assay: Proliferation assay (MTS), CaCO-2; format: cell-based; conditions: 72 h; wild type K-Ras, overexpressed
Description: (§2) (A) A panel of wild-type (WT) or oncogenic mutant (Mut) K-Ras-expressing tumor cells were seeded in 96-well plates and treated for 72 h with vehicle (DMSO) or various concentrations of fendiline. […] The graphs show relative mean numbers of viable cells±SEMs from 3 independent experiments. Cell lines expressing oncogenic mutant K-Ras are shown in red, and cell lines that express wild-type K-Ras are shown in black. NCI H1299 cells (shown in blue) express wild-type K-Ras but mutant N-Ras. CaCO-2 cells (shown in green) overexpress wild-type K-Ras. (B) K-Ras levels in whole-cell lysates of SNU-C1, CaCO-2, and SK-CO-1 cells were quantified by Western blotting. The graphs show means±SEMs for 3 isolates of each cell line (indicated as 1, 2, and 3). K-Ras expression was normalized to the SNU-C1 sample.
(§3) After 24 h, fresh growth medium supplemented with 1% vehicle (DMSO), various concentrations of fendiline, or U0126 was added and cells were grown for 48 h or 72 h.

[5] = test system: tumor cell lines expressing oncogenic mutant or wild-type K-Ras; assay: Proliferation assay (MTS), panel of pancreatic, endometrial, lung and colon tumor cell lines; format: cell-based; conditions: 72 h, various concentrations
Description: as §2, §3

[6] = test system: K-Ras-transformed Hec1A cells; assay: Proliferation assay (MTS), Hec-1a, fendiline versus U0126; conditions: 48 h, single dose of fendiline, U0126 renewed every 24 h
Description: The number of viable cells was quantified (absorbance at 490 nm) using the CellTiter 96 AQueous One Solution cell proliferation assay kit (Promega). […] Cell numbers were normalized to the corresponding vehicle-treated control. Statistical significance was calculated using Student's t test (*, P<0.05). […] Cell numbers were quantified using the CellTiter 96 AQueous One Solution cell proliferation assay (MTS) (Promega), according to the manufacturer's protocol.

[7] = test system: SNU-C1 cells; assay: Proliferation assay (MTS), SNU-C1; format: cell-based; conditions: 72 h; wild type K-Ras
Description: as §2, §3

[8] = target: T3, GFP-K-rasG12V in MDCK or BHK cells (Homo sapiens, UniProt P01116, G12V); assay: Cellular fractionation (P100/S100) with quantitative Western blotting, GFP-K-rasG12V; format: cell-based, canine (MDCK), hamster (BHK); conditions: 48 hours
T3 construct: MDCK and BHK cells expressing GFP-tagged full length constitutively active Ras (G12V) proteins; expressed in transfected cells
Description: Following treatment, membrane (P100) and soluble (S100) protein fractions were prepared and analyzed by quantitative Western blotting.
(§4) Preparation of whole-cell lysates: cells were lysed in Buffer B (50 mM Tris [pH 7.5], 75 mM NaCl, 25 mM NaF, 5 mM MgCl2, 5 mM EGTA, 1 mM dithiothreitol, 100 μM NaVO4, 1% Nonidet P-40 plus protease inhibitors). Cellular fractionation: cells were incubated in Buffer A (10 mm Tris-HCl, pH 7.5, 25 mm NaF, 5 mm MgCl2, 1 mm EGTA, 1 mm dithiothreitol, 100 μm NaVO4 plus protease inhibitors) for 30 minutes on ice and lysed by passing through a 27 G needle 30 times. The post nuclear supernatant was centrifuged at 100,000 g for 30 minutes and the membrane pellet was resuspended in Buffer A containing 1% Triton X-100.
as §1

[9] = test system: BHK cells stably expressing K-rasG12V; assay: Signaling downstream of oncogenic K-ras by quantitative Western blotting; format: cell-based, hamster; conditions: other Ca2+ channel blockers and ionomycin
Description: FIG. 5: Illustrates that fendiline HCl inhibits Raf kinase activity and signaling downstream of oncogenic K-ras: BHK cells stably expressing K-rasG12V were treated with vehicle or fendiline HCl (6 μg/mL) for 48 h. (A) Raf kinase activity in membrane fractions prepared from the cells was measured in a coupled […] kinase assay. Data is shown as mean±SEM from 3 independent experiments. (B) ppMEK and ppERK in soluble protein fraction and pAkt levels in membrane protein fraction were measured by quantitative Western blotting. Actin and Akt were used as loading controls for soluble and membrane fractions, respectively. A representative blots are shown. Data is shown as mean±SEM from 3-4 independent experiments. Statistical significance was calculated using one way ANOVA and Student's T-test. (*=p<0.05), wherein experimentation was performed in accordance with principles described herein;
as §4
Quantification of intensities was performed using FluorChemQ software.

T1 sequence (P01112 166-189 limits assumed): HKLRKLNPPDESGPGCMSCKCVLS

CN[C@@H]1C[C@H]2O[C@@](C)([C@@H]1OC)n1c3ccccc3c3c4c(c5c6ccccc6n2c5c31)C(=O)N[C@@H]4O [UCN-01]
localization of GFP-CTH ([1]; 250 ng/mL UCN-01, MDCK): causes mislocalization of both GFP-CTK and GFP-CTH
localization of GFP-CTK [2]: causes mislocalization of both GFP-CTK and GFP-CTH

N#CC(=C(/N)Sc1ccccc1N)/C(C#N)=C(\N)Sc1ccccc1N [U0126]
inhibition of MAPK activation (pERK levels), relative potency [3]: much more potent than fendiline

CC(NCCC(c1ccccc1)c1ccccc1)c1ccccc1 (centres unmarked) [fendiline, 3,3-diphenyl-N-(1-phenylethyl)propan-1-amine]
inhibition of proliferation of CaCO-2 [4]: potently inhibited
inhibition of proliferation, oncogenic mutant versus wild-type K-Ras tumor cells [5]: more potently inhibited the proliferation of tumor cells that express oncogenic mutant K-Ras than tumor cells that express wild-type K-Ras
inhibition of cell proliferation, relative potency [6]: significantly more potent than U0126
inhibition of proliferation of SNU-C1 [7]: unresponsive

COc1ccc([C@@H]2Sc3ccccc3N(CCN(C)C)C(=O)[C@@H]2OC(C)=O)cc1 [diltiazem]
localization of GFP-K-rasG12V (fractionation) ([8]; other Ca2+ channel blockers, 10 μM): None of the other Ca^2+ channel blockers altered the localization of GFP-K-rasG12V

CSCC[C@H](NC(=O)c1ccc(NC[C@@H](N)CS)cc1-c1ccccc1)C(=O)O [FTI-276]
localization of GFP-CTH ([1]; 10 μM FTI-276, MDCK): causes cytoplasmic localization of GFP-CTH

C[C@H](CCC(=O)O)C[C@H](C)C[C@H](C)C(=O)/C=C(\O)[C@H](C)C[C@H](C)C/C=C/[C@@H](C)[C@@H](O)[C@@H](C)[C@@H](O)C[C@@H]1CC[C@@](C)([C@H]2CC[C@@](C)([C@@H](C)O)O2)O1 [Ionomycin, ionomycin]
localization of Ras proteins (fractionation) ([8]; ionomycin 1 μM, GFP-K-rasG12V or GFP-H-rasG12V): did not significantly alter the localization of Ras proteins
effect on Ras signaling [9]: None of the other Ca^2+ channel blockers tested or ionomycin had any effect on Ras signaling

Source: US9474730B2, “Methods and compositions for use with K-ras mediated disorders” (Board of Regents of the University of Texas System, priority 2012, dated 2016)
